{
  "source": "ChEMBL document CHEMBL5385890",
  "about": "“A JAK tyrosine kinase and pseudokinase Co-inhibition strategy combines enhanced potency and on-demand activation” (Eur J Med Chem, 2023)",
  "key": {"[1]": {"experiment": "Cytotoxicity against HUVEC cells assessed as inhibition of cell growth", "assay_type": "toxicity, cell-based", "conditions": "human"}, "[2]": {"experiment": "Cytotoxicity against HUVEC cells assessed as inhibition of cell growth incubated in presence of 3-cyclopropyl-1-(3-{5-[(morpholin-4-yl)methyl]-1H-1,3-benzodiazol-2-yl}-1H-pyrazol-4-yl)urea", "assay_type": "toxicity, cell-based", "conditions": "human"}, "[3]": {"test_system": "HEL", "experiment": "Cytotoxicity against HEL cells assessed as inhibition of cell growth irradiated with 450 nm light and incubated in presence of 3-cyclopropyl-1-(3-{5-[(morpholin-4-yl)methyl]-1H-1,3-benzodiazol-2-yl}-1H-pyrazol-4-yl)urea", "assay_type": "functional, cell-based", "conditions": "Homo sapiens, light or radiation study"}, "[4]": {"test_system": "HEL", "experiment": "Cytotoxicity against HEL cells assessed as inhibition of cell growth incubated under dark condition in presence of 3-cyclopropyl-1-(3-{5-[(morpholin-4-yl)methyl]-1H-1,3-benzodiazol-2-yl}-1H-pyrazol-4-yl)urea", "assay_type": "functional, cell-based", "conditions": "Homo sapiens"}, "[5]": {"test_system": "HEL", "experiment": "Cytotoxicity against HEL cells assessed as inhibition of cell growth incubated under hypoxic condition in presence of 3-cyclopropyl-1-(3-{5-[(morpholin-4-yl)methyl]-1H-1,3-benzodiazol-2-yl}-1H-pyrazol-4-yl)urea", "assay_type": "functional, cell-based", "conditions": "Homo sapiens"}, "[6]": {"test_system": "HEL", "experiment": "Antitumor activity against HEL cells xenografted in Balb/c nude mouse assessed as tumor growth inhibition at 32.5 mg/kg, ip administered once daily for 14 consecutive days relative to control", "assay_type": "functional, Homo sapiens", "conditions": "336 h, time 14 day, read-out: TGI"}, "[7]": {"test_system": "HEL", "experiment": "Antitumor activity against HEL cells xenografted in Balb/c nude mouse assessed as tumor growth inhibition at 32.5 mg/kg, ip administered once daily for 14 consecutive days in presence of 3-cyclopropyl-1-(3-{5-[(morpholin-4-yl)methyl]-1H-1,3-benzodiazol-2-yl}-1H-pyrazol-4-yl)urea relative to control", "assay_type": "functional, Homo sapiens", "conditions": "336 h, time 14 day, read-out: TGI"}, "[8]": {"test_system": "HEL", "experiment": "Antitumor activity against HEL cells xenografted in Balb/c nude mouse assessed as induction of apoptosis in tumor at 32.5 mg/kg, ip administered once daily for 14 consecutive days in presence of 3-cyclopropyl-1-(3-{5-[(morpholin-4-yl)methyl]-1H-1,3-benzodiazol-2-yl}-1H-pyrazol-4-yl)urea by TUNEL assay relative to control", "assay_type": "functional, organism-based", "conditions": "Homo sapiens, time 14.0 day"}, "[9]": {"test_system": "BaF3", "experiment": "Cytotoxicity against mouse BaF3 cells harboring EPOR JAK2 V617F mutant", "assay_type": "functional, cell-based"}, "[10]": {"test_system": "HEL", "experiment": "Cytotoxicity against HEL cells assessed as inhibition of cell growth", "assay_type": "functional, cell-based", "conditions": "Homo sapiens"}, "[11]": {"test_system": "HEL", "experiment": "Cytotoxicity against HEL cells assessed as inhibition of cell growth incubated in presence of 3-cyclopropyl-1-(3-{5-[(morpholin-4-yl)methyl]-1H-1,3-benzodiazol-2-yl}-1H-pyrazol-4-yl)urea", "assay_type": "functional, cell-based", "conditions": "Homo sapiens"}, "[12]": {"test_system": "HEL", "experiment": "Cytotoxicity against HEL cells assessed as inhibition of cell growth incubated in presence of decernotinib", "assay_type": "functional, cell-based", "conditions": "Homo sapiens"}, "[13]": {"test_system": "HEL", "experiment": "Cytotoxicity against HEL cells assessed as inhibition of cell growth incubated in presence of tofacitinib", "assay_type": "functional, cell-based", "conditions": "Homo sapiens"}, "[14]": {"test_system": "HEL", "experiment": "Cytotoxicity against HEL cells assessed as inhibition of cell growth incubated in presence of ruxolitinib", "assay_type": "functional, cell-based", "conditions": "Homo sapiens"}, "[15]": {"test_system": "HEL", "experiment": "Synergistic cytotoxicity against HEL cells assessed as combination index for 25% activity in presence of 3-cyclopropyl-1-(3-{5-[(morpholin-4-yl)methyl]-1H-1,3-benzodiazol-2-yl}-1H-pyrazol-4-yl)urea", "assay_type": "functional, Homo sapiens"}, "[16]": {"test_system": "HEL", "experiment": "Synergistic cytotoxicity against HEL cells assessed as combination index for 25% activity in presence of decernotinib", "assay_type": "functional, Homo sapiens"}, "[17]": {"test_system": "HEL", "experiment": "Synergistic cytotoxicity against HEL cells assessed as combination index for 25% activity in presence of tofacitinib", "assay_type": "functional, Homo sapiens"}, "[18]": {"test_system": "HEL", "experiment": "Synergistic cytotoxicity against HEL cells assessed as combination index for 25% activity in presence of ruxolitinib", "assay_type": "functional, Homo sapiens"}, "[19]": {"test_system": "HEL", "experiment": "Synergistic cytotoxicity against HEL cells assessed as combination index for 50% activity in presence of 3-cyclopropyl-1-(3-{5-[(morpholin-4-yl)methyl]-1H-1,3-benzodiazol-2-yl}-1H-pyrazol-4-yl)urea", "assay_type": "functional, Homo sapiens"}, "[20]": {"test_system": "HEL", "experiment": "Synergistic cytotoxicity against HEL cells assessed as combination index for 50% activity in presence of decernotinib", "assay_type": "functional, Homo sapiens"}, "[21]": {"test_system": "HEL", "experiment": "Synergistic cytotoxicity against HEL cells assessed as combination index for 50% activity in presence of tofacitinib", "assay_type": "functional, Homo sapiens"}, "[22]": {"test_system": "HEL", "experiment": "Synergistic cytotoxicity against HEL cells assessed as combination index for 50% activity in presence of ruxolitinib", "assay_type": "functional, Homo sapiens"}, "[23]": {"test_system": "HEL", "experiment": "Synergistic cytotoxicity against HEL cells assessed as combination index for 75% activity in presence of 3-cyclopropyl-1-(3-{5-[(morpholin-4-yl)methyl]-1H-1,3-benzodiazol-2-yl}-1H-pyrazol-4-yl)urea", "assay_type": "functional, Homo sapiens"}, "[24]": {"test_system": "HEL", "experiment": "Synergistic cytotoxicity against HEL cells assessed as combination index for 75% activity in presence of decernotinib", "assay_type": "functional, Homo sapiens"}, "[25]": {"test_system": "HEL", "experiment": "Synergistic cytotoxicity against HEL cells assessed as combination index for 75% activity in presence of tofacitinib", "assay_type": "functional, Homo sapiens"}, "[26]": {"test_system": "HEL", "experiment": "Synergistic cytotoxicity against HEL cells assessed as combination index for 75% activity in presence of ruxolitinib", "assay_type": "functional, Homo sapiens"}, "[27]": {"test_system": "HEL", "experiment": "Synergistic cytotoxicity against HEL cells assessed as combination index for 95% activity in presence of 3-cyclopropyl-1-(3-{5-[(morpholin-4-yl)methyl]-1H-1,3-benzodiazol-2-yl}-1H-pyrazol-4-yl)urea", "assay_type": "functional, Homo sapiens"}, "[28]": {"test_system": "HEL", "experiment": "Synergistic cytotoxicity against HEL cells assessed as combination index for 95% activity in presence of decernotinib", "assay_type": "functional, Homo sapiens"}, "[29]": {"test_system": "HEL", "experiment": "Synergistic cytotoxicity against HEL cells assessed as combination index for 95% activity in presence of tofacitinib", "assay_type": "functional, Homo sapiens"}, "[30]": {"test_system": "HEL", "experiment": "Synergistic cytotoxicity against HEL cells assessed as combination index for 95% activity in presence of ruxolitinib", "assay_type": "functional, Homo sapiens"}, "[31]": {"test_system": "HEL", "experiment": "Cytotoxicity against HEL cells assessed as inhibition of cell growth at 100 uM relative to control", "assay_type": "functional", "conditions": "Homo sapiens"}, "[32]": {"test_system": "HEL", "experiment": "Cytotoxicity against HEL cells assessed as inhibition of cell growth at 50 uM relative to control", "assay_type": "functional", "conditions": "Homo sapiens"}, "[33]": {"test_system": "HEL", "experiment": "Cytotoxicity against HEL cells assessed as inhibition of cell growth at 25 uM relative to control", "assay_type": "functional", "conditions": "Homo sapiens"}, "[34]": {"test_system": "HEL", "experiment": "Cytotoxicity against HEL cells assessed as inhibition of cell growth at 5 uM relative to control", "assay_type": "functional", "conditions": "Homo sapiens"}, "[35]": {"test_system": "HEL", "experiment": "Cytotoxicity against HEL cells assessed as inhibition of cell growth at 1 uM relative to control", "assay_type": "functional", "conditions": "Homo sapiens"}, "[36]": {"test_system": "HEL", "experiment": "Cytotoxicity against HEL cells assessed as inhibition of cell growth at 0.2 uM relative to control", "assay_type": "functional", "conditions": "Homo sapiens"}, "[37]": {"test_system": "HEL", "experiment": "Cytotoxicity against HEL cells assessed as inhibition of cell growth at 0.04 uM relative to control", "assay_type": "functional", "conditions": "Homo sapiens"}, "[38]": {"test_system": "HEL", "experiment": "Cytotoxicity against HEL cells assessed as inhibition of cell growth at 0.008 uM relative to control", "assay_type": "functional", "conditions": "Homo sapiens"}, "[39]": {"test_system": "HEL", "experiment": "Cytotoxicity against HEL cells assessed as inhibition of cell growth at 0.0016 uM relative to control", "assay_type": "functional", "conditions": "Homo sapiens"}},
  "note": "The source made the active and inactive calls. No cut-off for these calls is given here.",
  "data": [
    {"compound": "Cc1cnc(Nc2ccc(N3CCNCC3)cc2)nc1Nc1cccc(S(=O)(=O)NC(C)(C)C)c1", "values": [
      {"measurement": "IC50", "setting": "[1]", "result": 960, "unit": "nM"},
      {"measurement": "IC50", "setting": "[2]", "result": 1760, "unit": "nM"},
      {"measurement": "IC50", "setting": "[3]", "result": 2180, "unit": "nM"},
      {"measurement": "IC50", "setting": "[4]", "result": 1410, "unit": "nM"},
      {"measurement": "IC50", "setting": "[5]", "result": 1340, "unit": "nM"},
      {"measurement": "inhibition in vivo at 32.5 mg/kg", "setting": "[6]", "result": 62.3, "unit": "%"},
      {"measurement": "inhibition in vivo at 32.5 mg/kg", "setting": "[7]", "result": 91.2, "unit": "%"},
      {"measurement": "Activity", "setting": "[8]", "result": "Active"},
      {"measurement": "IC50", "setting": "[9]", "result": 276, "unit": "nM"},
      {"measurement": "IC50", "setting": "[10]", "result": 1160, "unit": "nM"},
      {"measurement": "IC50", "setting": "[11]", "result": 550, "unit": "nM"},
      {"measurement": "IC50", "setting": "[12]", "result": 3070, "unit": "nM"},
      {"measurement": "IC50", "setting": "[13]", "result": 1530, "unit": "nM"},
      {"measurement": "IC50", "setting": "[14]", "result": 2450, "unit": "nM"},
      {"measurement": "CI25", "setting": "[15]", "result": 0.683},
      {"measurement": "CI25", "setting": "[16]", "result": 2.597},
      {"measurement": "CI25", "setting": "[17]", "result": 2.161},
      {"measurement": "CI25", "setting": "[18]", "result": 2.447},
      {"measurement": "CI50", "setting": "[19]", "result": 0.809},
      {"measurement": "CI50", "setting": "[20]", "result": 2.226},
      {"measurement": "CI50", "setting": "[21]", "result": 1.636},
      {"measurement": "CI50", "setting": "[22]", "result": 2.528},
      {"measurement": "CI75", "setting": "[23]", "result": 0.972},
      {"measurement": "CI75", "setting": "[24]", "result": 1.947},
      {"measurement": "CI75", "setting": "[25]", "result": 1.243},
      {"measurement": "CI75", "setting": "[26]", "result": 2.613},
      {"measurement": "CI95", "setting": "[27]", "result": 1.366},
      {"measurement": "CI95", "setting": "[28]", "result": 1.628},
      {"measurement": "CI95", "setting": "[29]", "result": 0.948},
      {"measurement": "CI95", "setting": "[30]", "result": 2.769},
      {"measurement": "inhibition at 100 µM", "setting": "[31]", "result": 95.6, "unit": "%"},
      {"measurement": "inhibition at 50 µM", "setting": "[32]", "result": 94.5, "unit": "%"},
      {"measurement": "inhibition at 25 µM", "setting": "[33]", "result": 95, "unit": "%"},
      {"measurement": "inhibition at 5 µM", "setting": "[34]", "result": 70.9, "unit": "%"},
      {"measurement": "inhibition at 1 µM", "setting": "[35]", "result": 40.3, "unit": "%"},
      {"measurement": "inhibition at 0.2 µM", "setting": "[36]", "result": 16.5, "unit": "%"},
      {"measurement": "inhibition at 0.04 µM", "setting": "[37]", "result": 14.2, "unit": "%"},
      {"measurement": "inhibition at 0.008 µM", "setting": "[38]", "result": -2.98, "unit": "%"},
      {"measurement": "inhibition at 0.0016 µM", "setting": "[39]", "result": 3.19, "unit": "%"}
    ]}
  ]
}
